Data on 52 sequences can be found in the supplement of paper PMC11208160.
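Note: IS621 bridge recombinase in Escherichia coli cells against a fixed T5 target plasmid.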

A short description of this data set: recombinant UMI read abundance after kanamycin selection (control-corrected) (log10(CPM+1)); higher = more efficient recombination; extreme values may be limits of the assay; sequences stand for … in AGTGCAGAGAAAATCGGCCAGTTTTCTCTGCCTGCAGTCCGCATGCCGTGGGACCCCTTGGGTTCTAACCTGTTGCCTAGATTTATGCAGCGGACTGCCTTTCTCCCAAAGTGATAAACCGG…AGGTTGGTTTCACT; site = the 11-nt donor. The method in brief:
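For the IS621 bridge recombinase, a pooled Escherichia coli screen tested donor and donor-binding-loop pairs. Cells received the pair library together with a target plasmid encoding a fixed target and T7-inducible recombinase, then went onto IPTG (0.07 mM) plus kanamycin or unselected plates in duplicate. After PCR across the donor–target junction and sequencing, recombinant UMI counts were normalized to CPM, averaged, and scaled by control-derived factors. Each value is given as log10(CPM+1).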
On to “GTCTTACCATGGACCGGTTTTCCCGGTAATCCGTATTTGCC (site GTCTTACCTGG)”, for which the “recombinant UMI read abundance (log10)” value worked out at 0.
Next, “GTCTTGACATGGACCGGTTTTCCCGGTAATCCGTATTTGTG (site GTCTTGACTCA)”: 0.296; “GTCTTGTCATGGACCGGTTTTCCCGGTAATCCGTATTTGTC (site GTCTTGTCTGA)”: 1.66.
Next, “GTGACGCCATGGACCGGTTTTCCCGGTAATCCGTATTTGAA (site GTGACGCCTTT)”: 0.0255.
For “GTGAGCGCATGGACCGGTTTTCCCGGTAATCCGTATTTGAG (site GTGAGCGCTCT)”, the “recombinant UMI read abundance (log10)” value stood at 1.68.
Regarding “GTGCAGGCATGGACCGGTTTTCCCGGTAATCCGTATTTGGT (site GTGCAAGCTAC)”, the “recombinant UMI read abundance (log10)” value stood at 1.77.
With “GTGCAGGCATGGACCGGTTTTCCCGGTAATCCGTATTTGGT (site GTGCACGCTAC)” the figure was 0.00349; with “GTGCAGGCATGGACCGGTTTTCCCGGTAATCCGTATTTGGT (site GTGCAGGCTAC)”, 0.659; with “GTGCAGGCATGGACCGGTTTTCCCGGTAATCCGTATTTGGT (site GTGCATGCTAC)”, 0.279.
With “GTGCAGGCATGGACCGGTTTTCCCGGTAATCCGTATTTGTG (site GTGAAGGCTCA)” the figure was 1.5; with “GTGCAGGCATGGACCGGTTTTCCCGGTAATCCGTATTTGTG (site GTGCAGGCTCA)”, 1.17.
With “GTGCAGGCATGGACCGGTTTTCCCGGTAATCCGTATTTGTG (site GTGGAGGCTCA)” the figure was 0.393.
Regarding “GTGCAGGCATGGACCGGTTTTCCCGGTAATCCGTATTTGTG (site GTGTAGGCTCA)”, the “recombinant UMI read abundance (log10)” value worked out at 0.475.
On to “GTGCATACATGGACCGGTTTTCCCGGTAATCCGTATTTGGT (site GTGCATACTAC)”, for which the “recombinant UMI read abundance (log10)” value was determined as 1.51.
Turning to “GTGCATACATGGACCGGTTTTCCCGGTAATCCGTATTTGGT (site GTGCATCCTAC)”, the “recombinant UMI read abundance (log10)” value amounted to 0.00833.
Next, “GTGCATACATGGACCGGTTTTCCCGGTAATCCGTATTTGGT (site GTGCATGCTAC)”: 0.555; “GTGCATACATGGACCGGTTTTCCCGGTAATCCGTATTTGGT (site GTGCATTCTAC)”: 0.00888; “GTGCATGCATGGACCGGTTTTCCCGGTAATCCGTATTTGCT (site GTGCATGCTAA)”: 0.00274.
Take “GTGCATGCATGGACCGGTTTTCCCGGTAATCCGTATTTGCT (site GTGCATGCTAC)”: the “recombinant UMI read abundance (log10)” value stood at 0.
Next, “GTGCATGCATGGACCGGTTTTCCCGGTAATCCGTATTTGCT (site GTGCATGCTAG)”: 2.86.
Next, “GTGCATGCATGGACCGGTTTTCCCGGTAATCCGTATTTGCT (site GTGCATGCTAT)”: 0.999; “GTGCCGACATGGACCGGTTTTCCCGGTAATCCGTATTTGAC (site GTGCCGACTGT)”: 2.4.
For “GTGCGTGCATGGACCGGTTTTCCCGGTAATCCGTATTTGGT (site GTGCATGCTAC)”, the “recombinant UMI read abundance (log10)” value stood at 0.26.
With “GTGCGTGCATGGACCGGTTTTCCCGGTAATCCGTATTTGGT (site GTGCCTGCTAC)” the figure was 0.00736.
Turning to “GTGCGTGCATGGACCGGTTTTCCCGGTAATCCGTATTTGGT (site GTGCGTGCTAC)”, the “recombinant UMI read abundance (log10)” value came to 0.346.
Next, “GTGCGTGCATGGACCGGTTTTCCCGGTAATCCGTATTTGGT (site GTGCTTGCTAC)”: 0.00274; “GTGCTCCCATGGACCGGTTTTCCCGGTAATCCGTATTTGAC (site GTGCTCCCTGT)”: 1.9; “GTGGACGCATGGACCGGTTTTCCCGGTAATCCGTATTTGAG (site GTGGACGCTCT)”: 1.56.
Next, “GTGGACGCATGGACCGGTTTTCCCGGTAATCCGTATTTGTG (site GTGGAAGCTCA)”: 1.41; “GTGGACGCATGGACCGGTTTTCCCGGTAATCCGTATTTGTG (site GTGGACGCTCA)”: 1.56; “GTGGACGCATGGACCGGTTTTCCCGGTAATCCGTATTTGTG (site GTGGAGGCTCA)”: 0.0785.
With “GTGGACGCATGGACCGGTTTTCCCGGTAATCCGTATTTGTG (site GTGGATGCTCA)” the figure was 0.653; with “GTGGAGACATGGACCGGTTTTCCCGGTAATCCGTATTTGTG (site GTGGAGACTCA)”, 1.59; with “GTGGAGACATGGACCGGTTTTCCCGGTAATCCGTATTTGTG (site GTGGAGCCTCA)”, 0.0116.
In the case of “GTGGAGACATGGACCGGTTTTCCCGGTAATCCGTATTTGTG (site GTGGAGGCTCA)”, the “recombinant UMI read abundance (log10)” value amounted to 1.4.
With “GTGGAGACATGGACCGGTTTTCCCGGTAATCCGTATTTGTG (site GTGGAGTCTCA)” the figure was 1.99; with “GTGGAGCCATGGACCGGTTTTCCCGGTAATCCGTATTTGTG (site GTGGAGACTCA)”, 0.00935.
With “GTGGAGCCATGGACCGGTTTTCCCGGTAATCCGTATTTGTG (site GTGGAGCCTCA)” the figure was 0.484; with “GTGGAGCCATGGACCGGTTTTCCCGGTAATCCGTATTTGTG (site GTGGAGGCTCA)”, 0.00706; with “GTGGAGCCATGGACCGGTTTTCCCGGTAATCCGTATTTGTG (site GTGGAGTCTCA)”, 1.74.
With “GTGGAGGCATGGACCGGTTTTCCCGGTAATCCGTATTTGAG (site GTGGAGGCTCA)” the figure was 0.00393.
In the case of “GTGGAGGCATGGACCGGTTTTCCCGGTAATCCGTATTTGAG (site GTGGAGGCTCC)”, the “recombinant UMI read abundance (log10)” value amounted to 0.297.
Next, “GTGGAGGCATGGACCGGTTTTCCCGGTAATCCGTATTTGAG (site GTGGAGGCTCG)”: 0.681; “GTGGAGGCATGGACCGGTTTTCCCGGTAATCCGTATTTGAG (site GTGGAGGCTCT)”: 1.57; “GTGGAGGCATGGACCGGTTTTCCCGGTAATCCGTATTTGGG (site GTGGAGGCTCA)”: 0.238.
Next, “GTGGAGGCATGGACCGGTTTTCCCGGTAATCCGTATTTGGG (site GTGGAGGCTCC)”: 0.954; “GTGGAGGCATGGACCGGTTTTCCCGGTAATCCGTATTTGGG (site GTGGAGGCTCG)”: 0.597.
With “GTGGAGGCATGGACCGGTTTTCCCGGTAATCCGTATTTGGG (site GTGGAGGCTCT)” the figure was 0.567; with “GTGGAGGCATGGACCGGTTTTCCCGGTAATCCGTATTTGTA (site GTGGAGGCTAA)”, 0.557.
With “GTGGAGGCATGGACCGGTTTTCCCGGTAATCCGTATTTGTA (site GTGGAGGCTCA)”, the “recombinant UMI read abundance (log10)” value was found to be 0.682.
With “GTGGAGGCATGGACCGGTTTTCCCGGTAATCCGTATTTGTA (site GTGGAGGCTGA)” the figure was 0.943; with “GTGGAGGCATGGACCGGTTTTCCCGGTAATCCGTATTTGTA (site GTGGAGGCTTA)”, 2.86.
